Measurements taken from patent publication US11142525B2 (Pfizer Inc., priority 2018, dated 2021).

What was measured:
[1] = target: human full-length recombinant HPK1 (Homo sapiens (Human), UniProt Q92918); assay: HPK1 biochemical enzyme assay, microfluidic mobility shift assay (MSA); conditions: HPK1 mobility shift assay; read-out: HPK1 Enzyme Assay_Ki
[2] = tested on: phospho-SLP-76 (Ser376) in Jurkat cells; assay: Phospho-SLP-76 (Ser376) Homogeneous Time Resolved Fluorescence (HTRF) assay in Jurkat cells; type: cell-based; conditions: Homo sapiens, Phospho-SLP-76 (Ser376) HTRF, anti-CD3 stimulation, read-out: SLP76 Assay_IC50
In short: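 Phospho-SLP-76 in lysates was read by sandwich HTRF and IC50 derived by four-parameter nonlinear regression. Before lysis, cells had received compound for 30 min (11-point, 3-fold series from 10 μM, 0.1% DMSO), followed by anti-CD3 F(ab)2 complex (200 μg/mL, 15 min, 37 °C).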

Chain of human full-length recombinant HPK1 (Q92918 whole entry): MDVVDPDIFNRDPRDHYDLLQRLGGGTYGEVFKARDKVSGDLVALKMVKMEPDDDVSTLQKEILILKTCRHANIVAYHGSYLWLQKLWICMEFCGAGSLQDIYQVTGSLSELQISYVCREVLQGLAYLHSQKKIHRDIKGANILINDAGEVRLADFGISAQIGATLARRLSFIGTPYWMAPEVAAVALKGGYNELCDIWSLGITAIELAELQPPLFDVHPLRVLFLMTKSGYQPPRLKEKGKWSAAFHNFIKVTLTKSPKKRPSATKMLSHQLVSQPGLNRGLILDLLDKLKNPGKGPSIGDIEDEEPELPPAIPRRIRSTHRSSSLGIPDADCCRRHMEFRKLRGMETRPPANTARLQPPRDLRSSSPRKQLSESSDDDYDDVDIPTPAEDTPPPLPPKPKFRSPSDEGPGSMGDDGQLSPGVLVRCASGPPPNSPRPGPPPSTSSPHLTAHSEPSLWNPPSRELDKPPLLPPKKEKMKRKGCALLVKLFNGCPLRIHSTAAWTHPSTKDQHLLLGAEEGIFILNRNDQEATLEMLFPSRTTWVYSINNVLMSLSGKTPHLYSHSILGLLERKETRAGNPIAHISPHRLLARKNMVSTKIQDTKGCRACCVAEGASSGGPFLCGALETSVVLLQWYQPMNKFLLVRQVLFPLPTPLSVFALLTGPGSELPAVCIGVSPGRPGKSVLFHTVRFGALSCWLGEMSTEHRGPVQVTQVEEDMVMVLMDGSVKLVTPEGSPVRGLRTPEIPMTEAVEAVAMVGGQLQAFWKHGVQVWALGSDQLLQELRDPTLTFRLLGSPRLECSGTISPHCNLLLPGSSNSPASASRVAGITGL

Row | Ki [1] [nM] | IC50 [2] [nM] | Compound
1 | < 0.09 | 56 | CCCn1cnnc1-c1cccc(N2Cc3c(cc(N4CCC[C@@H]4C(F)(F)F)nc3CNC)C2=O)n1 [Example 120, 4-[(methylamino)methyl]-2-[6-(4-propyl-4H-1,2,4-triazol-3-yl)pyridin-2-yl]-6-[(2R)-2-(trifluoromethyl)pyrrolidin-1-yl]-2,3-dihydro-1H-pyrrolo[3,4-c]pyridin-1-one]
2 | 0.41 | 70 | CCC(CC)n1cnnc1-c1cccc(N2Cc3c(cc(N(CC)CC)nc3CN)C2=O)n1 [Example 122, 4-(aminomethyl)-6-(diethylamino)-2-{6-[4-(pentan-3-yl)-4H-1,2,4-triazol-3-yl]pyridin-2-yl}-2,3-dihydro-1H-pyrrolo[3,4-c]pyridin-1-one]
3 | 1.03 | 273 | CCN(c1cc2c(c(CN)n1)CN(c1cccc(N3C(=O)OC[C@@H]3CF)n1)C2=O)C(C)C [Example 123, 4-(aminomethyl)-6-[ethyl(propan-2-yl)amino]-2-{6-[(4R)-4-(fluoromethyl)-2-oxo-1,3-oxazolidin-3-yl]pyridin-2-yl}-2,3-dihydro-1H-pyrrolo[3,4-c]pyridin-1-one]
4 | 1.5 | 375 | C[C@@H]1CC[C@@H](C)N1c1cc2c(c(CN)n1)CN(c1cccc(N3C(=O)OC[C@@H]3CF)n1)C2=O [Example 124, 4-(aminomethyl)-6-[(2R,5R)-2,5-dimethylpyrrolidin-1-yl]-2-{6-[(4R)-4-(fluoromethyl)-2-oxo-1,3-oxazolidin-3-yl]pyridin-2-yl}-2,3-dihydro-1H-pyrrolo[3,4-c]pyridin-1-one]

The next lines start with the molecule.

Row | Compound | Ki [1] [nM] | IC50 [2] [nM]
5 | CCn1cnnc1-c1cccc(N2Cc3c(cc(N4CCC[C@@H]4C)nc3CNC)C2=O)n1 [Example 114, 2-[6-(4-ethyl-4H-1,2,4-triazol-3-yl)pyridin-2-yl]-4-[(methylamino)methyl]-6-[(2S)-2-methylpyrrolidin-1-yl]-2,3-dihydro-1H-pyrrolo[3,4-c]pyridin-1-one] | 0.12 | 37
6 | CCn1cnnc1-c1cccc(N2Cc3c(cc(N4CCC[C@H]4C)nc3CNC)C2=O)n1 [Example 115, 2-[6-(4-ethyl-4H-1,2,4-triazol-3-yl)pyridin-2-yl]-4-[(methylamino)methyl]-6-[(2R)-2-methylpyrrolidin-1-yl]-2,3-dihydro-1H-pyrrolo[3,4-c]pyridin-1-one] | < 0.09 | 21
7 | CNCc1nc(N2[C@H](C)CC[C@H]2C)cc2c1CN(c1cccc(-c3nnc(C)n3C(C)C)n1)C2=O [Example 116, 6-[(2R,5R)-2,5-dimethylpyrrolidin-1-yl]-4-[(methylamino)methyl]-2-{6-[5-methyl-4-(propan-2-yl)-4H-1,2,4-triazol-3-yl]pyridin-2-yl}-2,3-dihydro-1H-pyrrolo[3,4-c]pyridin-1-one] | 1.04 | 381
8 | CCC(CC)n1cnnc1-c1cccc(N2Cc3c(cc(N(C)C)nc3CN)C2=O)n1 [Example 117, 4-(aminomethyl)-6-(dimethylamino)-2-{6-[4-(pentan-3-yl)-4H-1,2,4-triazol-3-yl]pyridin-2-yl}-2,3-dihydro-1H-pyrrolo[3,4-c]pyridin-1-one] | 0.46 | 89
9 | CNCc1nc(N2[C@H](C)CC[C@H]2C)cc2c1CN(c1cccc(N3C(=O)OC[C@@H]3CF)n1)C2=O [Example 118, 6-[(2R,5R)-2,5-dimethylpyrrolidin-1-yl]-2-{6-[(4R)-4-(fluoromethyl)-2-oxo-1,3-oxazolidin-3-yl]pyridin-2-yl}-4-[(methylamino)methyl]-2,3-dihydro-1H-pyrrolo[3,4-c]pyridin-1-one] | 0.89 | 149
10 | CCC(CC)n1cnnc1-c1cccc(N2Cc3c(cc(N4[C@H](C)CC[C@H]4C)nc3CN)C2=O)n1 [Example 119, 4-(aminomethyl)-6-[(2R,5R)-2,5-dimethylpyrrolidin-1-yl]-2-{6-[4-(pentan-3-yl)-4H-1,2,4-triazol-3-yl]pyridin-2-yl}-2,3-dihydro-1H-pyrrolo[3,4-c]pyridin-1-one] | 0.52 | 104
